Experimental data as given in patent publication US20240376085A1 (Janssen Pharmaceutica NV, priority 2021, published 2024).

What was measured:
IL-17A : IL-17RA binding = biological target: T1, IL-17A : IL-17RA binding (Homo sapiens, UniProt Q16552, K93Q); assay: IL-17A(FLAG-tagged):IL-17RA(His-tagged) binding disruption Eu-HTRF assay, Protocol 1; conditions: FLAG-IL-17A 2.5 nM at 2x final concentration; average if tested more than once
T1 construct: Name: IL-17A-Flag
Source text: An antibody directed against the FLAG tag of IL-17A (SEQ ID NO: 1) is labeled with the HTRF donor chromophore (Europium-cryptate). IL-17A is present as a dimer that is “locked into” this quaternary structure due to the formation of loop-spanning […] disulfide bridges. The construct of IL-17RA used in the assay excludes the […] portion of the receptor and is fused to a C-terminal 10×His tag (SEQ ID NO:2). An antibody directed against the His tag of the IL-17RA chimera is labeled with the HTRF acceptor chromophore (“D2”). The fluorescence-resonance energy transfer (FRET) depends on the vicinity of the donor chromophore to the acceptor, and interruption of the binding between the IL-17A and IL-17RA causes the reduction/loss of FRET. Therefore, this assay allows to evaluate the compound effect on the binding IL-17A and IL-17RA by monitoring the fluorescence intensity of donor vs acceptor. The assay was run using either Protocol 1 or Protocol 2 as described below.
Protocol 1. 40 nl of 2-fold serial diluted compound solution for total 22 dilution points is added into each well of a 1536-well, white, low-volume, non-binding plate (Greiner #782904), then 2 μl of FLAG tagged IL-17A at 2× final concentration (2.5 nM) in solution of PBS+0.01% Triton-X100 is added to each well. The assay plate is briefly centrifuged then incubated for 1 h at rt. A mixed solution is prepared containing 2×5 nM 10HIS×IL-17RA, 2×2.5 nM Eu-anti-FLAG (CISBIO), 2×5 nM D2-anti-HIS (CISBIO) in PBS+0.01% Triton-X100+200 mM Potassium Fluoride (Sigma 60238) and 2 μl of mix is added to each well of the assay plate. The plate is briefly centrifuged then incubated for 2 h at rt. The HTRF intensities at the wavelength of donor (620 nm) and acceptor (665 nm) are measured using BMG Pherastar. The ratio between intensities at two wavelengths is calculated and plotted against the compound concentration and the data is fitted to a one-site competition model to yield IC50 of the compound.

[1] = test system: IL-17A-induced G-CSF production in human normal keratinocyte (NHK); assay: NHK assay: IL-17A-induced G-CSF production in normal human keratinocytes; assay type: cell-based; conditions: Homo sapiens, Keratinocyte, 24 h, IL-17A 5 ng/mL, average if tested more than once
Experimental: IL-17A acts directly on keratinocytes through binding to dimeric receptor IL-17RA/RC and drives the production of a number of inflammatory mediators known to be elevated in psoriasis lesional tissue. IL-17A small molecule inhibitors that block the IL-17A to interact with IL-17R would inhibit the IL-17A signaling in its targeted cells such as keratinocytes. The compound functional activity is evaluated for its impact on IL-17A-induced G-CSF production in human normal keratinocyte (NHK).
Adult normal human keratinocytes are cultured in keratinocyte growth medium (Lonza) in a flask till reaching ˜90% confluence, then cells are transferred to a 384-well plate at density of 3000-4000 cell/well. Recombinant human IL-17A (Gibco PHC9174) is pre-incubated with titrated compound or DMSO for 1 h at rt then added to the cell culture plate. The final concentration of IL-17A is 5 ng/mL and DMSO is 0.2%, in the culture containing 5% FBS. Cells are cultured/treated for 24 h at 37° C. Supernatants are collected and G-CSF production is measured through HTRF technology using Human G-CSF Kit (CisBio). G-CSF concentration was extrapolated from the standard curve and IC50 is determined using GraphPad Prism. Cell viability is also evaluated using CellTiter-Glo kit (Promega) and effect of compound on cell viability is compared to DMSO control.

T1 sequence (Q16552 with tags, fused parts or gaps K93Q): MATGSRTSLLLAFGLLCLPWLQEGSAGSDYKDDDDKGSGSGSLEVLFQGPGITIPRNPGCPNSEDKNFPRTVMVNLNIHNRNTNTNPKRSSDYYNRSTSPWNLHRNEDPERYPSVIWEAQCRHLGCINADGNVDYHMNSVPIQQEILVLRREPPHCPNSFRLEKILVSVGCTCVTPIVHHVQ

SMILES | IC50 (IL-17A : IL-17RA binding) | IC50 [1]
C[C@@H](NC(=O)CCC(F)(F)F)c1ccc2[nH]c([C@@H](NC(=O)[C@H]3C[C@@H]3C#N)C3CCC(F)(F)CC3)nc2c1 (relative stereo) [Example 103, trans-(1S*,2S*)-2-Cyano-N—((S)-(4,4-difluorocyclohexyl)(5-((R)-1-(4,4,4-trifluorobutanamido)ethyl)-1H-benzo[d]imidazol-2-yl)methyl)cyclopropane-1-carboxamide] | > 100 nM | > 100 nM
C[C@@H](NC(=O)CCC(F)(F)F)c1ccc2[nH]c([C@@H](NC(=O)[C@@H]3C[C@H]3C#N)C3CCC(F)(F)CC3)nc2c1 (relative stereo) [Example 104, trans-(1R*,2R*)-2-Cyano-N—((S)-(4,4-difluorocyclohexyl)(5-((R)-1-(4,4,4-trifluorobutanamido)ethyl)-1H-benzo[d]imidazol-2-yl)methyl)cyclopropane-1-carboxamide] | > 100 nM | > 100 nM
C[C@@H](NC(=O)CCC(F)(F)F)c1ccc2[nH]c([C@@H](NC(=O)[C@H]3C[C@@H]3C(F)(F)F)C3CCC(F)(F)CC3)nc2c1 (relative stereo) [Example 105, trans-(1S*,2S*)—N—((S)-(4,4-Difluorocyclohexyl)(5-((R)-1-(4,4,4-trifluorobutanamido)ethyl)-1H-benzo[d]imidazol-2-yl)methyl)-2-(trifluoromethyl)cyclopropane-1-carboxamide] | > 100 nM | > 100 nM
C[C@@H](NC(=O)CCC(F)(F)F)c1ccc2[nH]c([C@@H](NC(=O)[C@@H]3C[C@H]3C(F)(F)F)C3CCC(F)(F)CC3)nc2c1 (relative stereo) [Example 106, trans-(1R*,2R*)—N—((S)-(4,4-Difluorocyclohexyl)(5-((R)-1-(4,4,4-trifluorobutanamido)ethyl)-1H-benzo[d]imidazol-2-yl)methyl)-2-(trifluoromethyl)cyclopropane-1-carboxamide] | > 100 nM | > 100 nM
C[C@@H](NC(=O)CCC(F)(F)F)c1ccc2[nH]c([C@@H](NC(=O)C3(C)CC3(F)F)C3CCC(F)(F)CC3)nc2c1 (relative stereo) [Example 109, N—((S)-(4,4-Difluorocyclohexyl)(5-((R*)-1-(4,4,4-trifluorobutanamido)ethyl)-1H-benzo[d]imidazol-2-yl)methyl)-2,2-difluoro-1-methylcyclopropane-1-carboxamide] | > 100 nM | > 100 nM
Cc1nonc1C(=O)N[C@@H](CO[C@H](C)C(F)(F)F)c1nc2ccc([C@H](NC(=O)CC3CC(F)(F)C3)C3CC3)cc2[nH]1 (relative stereo) [Example 150, N—((R*)-1-(6-((R)-Cyclopropyl(2-(3,3-difluorocyclobutyl)acetamido)methyl)-1H-benzo[d]imidazol-2-yl)-2-(((R*)-1,1,1-trifluoropropan-2-yl)oxy)ethyl)-4-methyl-1,2,5-oxadiazole-3-carboxamide] | > 100 nM | > 100 nM
C[C@@H](OC[C@H](NC(=O)c1nonc1C1CC1)c1nc2ccc([C@H](NC(=O)CC3CC(F)(F)C3)C3CC3)cc2[nH]1)C(F)(F)F (relative stereo) [Example 155, 4-Cyclopropyl-N—((R*)-1-(6-((R)-cyclopropyl(2-(3,3-difluorocyclobutyl)acetamido)methyl)-1H-benzo[d]imidazol-2-yl)-2-(((R)-1,1,1-trifluoropropan-2-yl)oxy)ethyl)-1,2,5-oxadiazole-3-carboxamide] | < 50 nM | > 100 nM
CC(C)n1nccc1C(=O)N[C@@H](COC(C)C(F)(F)F)c1nc2ccc([C@H](NC(=O)CC3CC(F)(F)C3)C3CC3)cc2[nH]1 (relative stereo) [Example 156, N—((R*)-1-(6-((R)-Cyclopropyl(2-(3,3-difluorocyclobutyl)acetamido)methyl)-1H-benzo[d]imidazol-2-yl)-2-(((R)-1,1,1-trifluoropropan-2-yl)oxy)ethyl)-1-isopropyl-1H-pyrazole-5-carboxamide] | 50 to 100 nM | 50 to 100 nM
CC(C)n1nccc1C(=O)N[C@@H](CO[C@@H](C)C(F)(F)F)c1nc2ccc([C@H](NC(=O)CC3CC(F)(F)C3)C3CC3)cc2[nH]1 (relative stereo) [Example 158, N—((R*)-1-(6-((R)-Cyclopropyl(2-(3,3-difluorocyclobutyl)acetamido)methyl)-1H-benzo[d]imidazol-2-yl)-2-(((S)-1,1,1-trifluoropropan-2-yl)oxy)ethyl)-1-isopropyl-1H-pyrazole-5-carboxamide] | < 50 nM | > 100 nM
Cc1nonc1C(=O)N[C@@H](COC(C)(C)C(F)(F)F)c1nc2ccc([C@H](NC(=O)CC3CC(F)(F)C3)C3CC3)cc2[nH]1 (relative stereo) [Example 161, N—((R*)-1-(6-((R)-Cyclopropyl(2-(3,3-difluorocyclobutyl)acetamido)methyl)-1H-benzo[d]imidazol-2-yl)-2-((1,1,1-trifluoro-2-methylpropan-2-yl)oxy)ethyl)-4-methyl-1,2,5-oxadiazole-3-carboxamide] | < 50 nM | 50 to 100 nM
CCc1nonc1C(=O)N[C@@H](CC(C)(C)C(F)(F)F)c1nc2cc([C@@H](NC(=O)CCC(F)(F)F)C3CC3)ccc2[nH]1 (relative stereo) [Example 189, N—((S*)-1-(5-((S*)-Cyclopropyl(4,4,4-trifluorobutanamido)methyl)-1H-benzo[d]imidazol-2-yl)-4,4,4-trifluoro-3,3-dimethylbutyl)-4-ethyl-1,2,5-oxadiazole-3-carboxamide] | > 100 nM | > 100 nM
CCc1nonc1C(=O)N[C@@H](CC(C)(C)C(F)(F)F)c1nc2cc([C@H](NC(=O)CCC(F)(F)F)C3CC3)ccc2[nH]1 (relative stereo) [Example 190, N—((S*)-1-(5-((R*)-Cyclopropyl(4,4,4-trifluorobutanamido)methyl)-1H-benzo[d]imidazol-2-yl)-4,4,4-trifluoro-3,3-dimethylbutyl)-4-ethyl-1,2,5-oxadiazole-3-carboxamide] | < 50 nM | < 50 nM
Cc1nonc1C(=O)N[C@@H](CC(C)(C)C(F)(F)F)c1nc2cc([C@@H](NC(=O)CCC(F)(F)F)C3CC3)ccc2[nH]1 (relative stereo) [Example 192, N—((S*)-1-(5-((S*)-Cyclopropyl(4,4,4-trifluorobutanamido)methyl)-1H-benzo[d]imidazol-2-yl)-4,4,4-trifluoro-3,3-dimethylbutyl)-4-methyl-1,2,5-oxadiazole-3-carboxamide] | > 100 nM | > 100 nM
Cc1nonc1C(=O)N[C@@H](CC(C)(C)C(F)(F)F)c1nc2cc([C@H](NC(=O)CCC(F)(F)F)C3CC3)ccc2[nH]1 (relative stereo) [Example 193, N—((S*)-1-(5-((R*)-Cyclopropyl(4,4,4-trifluorobutanamido)methyl)-1H-benzo[d]imidazol-2-yl)-4,4,4-trifluoro-3,3-dimethylbutyl)-4-methyl-1,2,5-oxadiazole-3-carboxamide] | < 50 nM | 50 to 100 nM
C[C@@H](NC(=O)CCC(F)(F)F)c1ccc2[nH]c([C@@H](NC(=O)c3nnc(CCC(F)(F)F)o3)C3CCC(F)(F)CC3)nc2c1 [Example 187, N—((S)-(4,4-Difluorocyclohexyl)(5-((R)-1-(4,4,4-trifluorobutanamido)ethyl)-1H-benzo[d]imidazol-2-yl)methyl)-5-(3,3,3-trifluoropropyl)-1,3,4-oxadiazole-2-carboxamide] |  | > 100 nM
